The values that follow are results of earlier work, collected in US9801827B2, “Dosage forms for administering combinations of drugs” (Pozen Inc., priority 2006, dated 2017).

The conditions of the series: pharmacokinetic half-life, given as examples of long acting NSAIDs.
A word on the half-life: it is the time needed for the level to fall by half in the phase considered. As to `CCc1cccc2c3c([nH]c12)C(CC)(CC(=O)O)OCC3` (stereo not drawn) [etodolac], the half-life result is “about 7 hours”.

Turning to `CC(C(=O)O)c1ccc(-c2ccccc2)c(F)c1` (stereo not drawn) [flurbiprofen], the half-life entry is “about 6 hours”.

Regarding `O=C(c1ccccc1)c1ccc2n1CCC2C(=O)O` (stereo not drawn) [ketorolac], the half-life is 8 to 9 h.

Turning to `Cc1cccc(Nc2ccccc2C(=O)O)c1C` [mefenamic acid], the half-life entry is “up to 4 hours”.

With `COc1ccc2cc(CCC(C)=O)ccc2c1` [nabumetone], the half-life is 22 to 30 h.

For the compound `O=C(O)CCc1nc(-c2ccccc2)c(-c2ccccc2)o1` [oxaprozin], the half-life is 42 to 50 h.
